Common to all, as to type: physicochemical
A short description of data set [1]: Multi stage cross-current back-extraction from isobutyl acetate at pH 6, distribution coefficient by HPLC. The conditions noted are these: water/isobutyl acetate. How it is done:
(§1) HPLC analysis was based on reversed phase liquid chromatography followed by UV-detection at 238 nm. Apparatus: Dionex HPLC-UV system comprising of a P680 pump, a TCC-100 column compartment with thermostat, a WPS-3000 auto sampler and a UVD34OU PDA detector.
(§2) pH values mentioned in the description and claims of the present application were measured using a Radiometer PHM82 standard pH meter equipped with a Mettler Toledo Inlab 412 pH electrode (electrolyte 9823). Equilibration was carried out at 20±1° C. using a Merck pH 4.00 buffer (art. nr. 1.09435.1000) and a Merck pH 7.00 buffer (art. nr. 1.09439.1000).
Starting material for this experiment was broth filtrate, obtained after ultra-filtration of broth obtained by fermentation of Penicillium chrysogenum transformant T1.48 as described in Example 4 of WO 2007/147827 using a 50 nm poly-sulfone membrane. The filtrate (2 liter, containing 1.2 g/l pravastatin and 0.37 g/l compactin) was extracted twice with isobutyl acetate (2×1 liter) at pH 4. For a clear phase separation, the organic phases were filtered through a Seitz Z-2000 filter plate. The organic phases were combined and washed with water (500 ml), giving isobutyl acetate extract (1960 ml) which was concentrated to 100 ml under vacuum at T<40° C. The concentrate was decolorized using a coal cartridge filled with Cuno C55 carbon (1.8 g carbon; diameter of carbon plate 18 cm^2). After rinsing a clear solution (150 ml) was obtained containing ˜12 g/l pravastatin and 3.8 g/l compactin. This solution was extracted three times with water (3×150 ml) at pH 6. The pH was adjusted with 25% ammonia. The aqueous and organic phases were analyzed with HPLC (Table 3). As can be calculated, after the second back-extraction the total extraction yield of pravastatin in the combined aqueous phases was 97.6% pravastatin and after the third back-extraction the total extraction yield of pravastatin in the combined aqueous phases was 99.6%. The ratio pravastatin:compactin was 3:1 in the starting mixture, 45:1 after one back-extraction, 25:1 after two back-extractions and 17:1 after three back-extractions.

A short description of data set [2]: Multi stage cross-current back-extraction from ethyl acetate at pH 5.9, distribution coefficient by HPLC. Particulars: water/ethyl acetate. On the procedure: as §1, §2
Starting material for this experiment was broth filtrate, obtained after ultra-filtration of broth obtained by fermentation of Penicillium chrysogenum transformant T1.48 as described in Example 4 of WO 2007/147827 using a 50 nm poly-sulfone membrane. The filtrate (5.25 liter, containing 1.2 g/l pravastatin and 0.37 g/l compactin) was extracted twice with ethyl acetate (2×2.5 liter) at pH 4. For a clear phase separation, the organic phases were filtered through a Seitz Z-2000 filter plate. The extraction yields were 90.6% and 8.3% respectively, so the overall extraction yield was 98.9%. The organic phases were combined and washed with water (2.5 liter), giving ethyl acetate extract (4.65 liter, yield over the wash step 97%) which was concentrated to 250 ml under vacuum at T<40° C., giving a clear solution containing ˜25 g/l pravastatin. This solution was extracted three times with water (3×250 ml) at pH 5.9. The pH was adjusted with 4N sodium hydroxide. The aqueous and organic phases were analyzed with HPLC (Table 4). As can be calculated, after the second back-extraction the total extraction yield of pravastatin in the combined aqueous phases was 91% pravastatin and after the third back-extraction the total extraction yield of pravastatin in the combined aqueous phases was 96%. The ratio pravastatin:compactin was 3:1 in the starting mixture, 26:1 after one back-extraction, 19:1 after two back-extractions and 17:1 after three back-extractions.

Data set [3] is described as follows: Batch-wise single stage back-extraction from methyl isobutyl ketone into water, distribution coefficient by HPLC. On the procedure:
as §1, §2
One of the portions of supernatant (800 ml) obtained in Example 1, methyl isobutyl ketone (800 ml) and dicalite 448 (20 g) were mixed and the pH was adjusted to 4 with 6N sulfuric acid. The mixture was filtered over a Seitz Z-2000 filter plate. The phases of the filtrate were separated and the organic phase was washed once with water (400 ml), giving a methyl isobutyl ketone extract (750 ml) from which eight portions of 80 ml were taken. Each portion was mixed with an equal volume of water at a certain pH, varying from 4.5 to 8. After mixing, the phases were separated and analyzed by HPLC.

A short description of data set [4]: Batch-wise single stage back-extraction from ethyl acetate into water, distribution coefficient by HPLC. How it is done:
as §1, §2
A broth obtained by fermentation of Penicillium chrysogenum transformant T1.48 as described in Example 4 of WO 2007/147827 (2 liter, containing 2.5 g/kg pravastatin and 0.8 g/kg compactin) was centrifuged and the supernatant was divided into 2 portions of 800 ml. One of these portions of supernatant (800 ml), ethyl acetate (800 ml) and dicalite 448 (20 g) were mixed and the pH was adjusted to 4 with 6N sulfuric acid. The mixture was filtered over a Seitz Z-2000 filter plate. The phases of the filtrate were separated and the organic phase was washed once with water (400 ml), giving an ethyl acetate extract (700 ml) which was divided into eight portions of 80 ml and one of 60 ml. Each portion was mixed with an equal volume of water at a certain pH, varying from 4.5 to 8. After mixing, the phases were separated and analyzed by HPLC.

With `CC[C@H](C)C(=O)O[C@H]1CCC=C2C=C[C@H](C)[C@H](CC[C@@H](O)C[C@@H](O)CC(=O)[O-])[C@H]21.[Na+]` [Comp, compactin], the “Distribution coefficient (CAqueous phase/COrganic phase)” value in data set [1] (pH 6, 1st extraction) was determined as 0.06; in data set [1] (pH 6, 2nd extraction) it was 0.07; in data set [1] (pH 6, 3rd extraction), 0.07; in data set [2] (pH 5.9, 1st extraction), 0.08; in data set [2] (pH 5.9, 2nd extraction), 0.06; in data set [2] (pH 5.9, 3rd extraction), 0.03. For the same molecule, the “Distribution coefficient (CAqueous phase/COrganic phase)” value is on record as 0.0 in data set [3] (pH 4.5); 0.0 in data set [3] (pH 5); 0.0 in data set [3] (pH 5.5); 0.0 in data set [3] (pH 6); 0.1 in data set [3] (pH 6.5); 0.2 in data set [3] (pH 7). Also, the “Distribution coefficient (CAqueous phase/COrganic phase)” value in data set [3] (pH 7.5) is listed as 0.9; in data set [3] (pH 8), 3.3; in data set [4] (pH 4.5), 0.0; in data set [4] (pH 5) it was 0.0; in data set [4] (pH 5.5) it was 0.0; in data set [4] (pH 6), 0.0. Moreover, the “Distribution coefficient (CAqueous phase/COrganic phase)” value in data set [4] (pH 6.25) stood at 0.0; in data set [4] (pH 6.5) it was 0.1; in data set [4] (pH 7), 0.3; in data set [4] (pH 7.5), 0.8; in data set [4] (pH 8) it was 2.9.

On to `CC[C@H](C)C(=O)O[C@H]1C[C@H](O)C=C2C=C[C@H](C)[C@H](CC[C@@H](O)C[C@@H](O)CC(=O)[O-])[C@H]21.[Na+]` [Prava, pravastatin], for which the “Distribution coefficient (CAqueous phase/COrganic phase)” value in data set [1] (pH 6, 1st extraction) is reported as 4.8; in data set [1] (pH 6, 2nd extraction), 5.9; in data set [1] (pH 6, 3rd extraction), 5.2; in data set [2] (pH 5.9, 1st extraction) it was 1.5; in data set [2] (pH 5.9, 2nd extraction), 1.9; in data set [2] (pH 5.9, 3rd extraction), 0.7. Also, the “Distribution coefficient (CAqueous phase/COrganic phase)” value turned out to be 0.2 in data set [3] (pH 4.5); 0.2 in data set [3] (pH 5); 0.6 in data set [3] (pH 5.5); 1.4 in data set [3] (pH 6); 4.0 in data set [3] (pH 6.5); 12.0 in data set [3] (pH 7). The “Distribution coefficient (CAqueous phase/COrganic phase)” value in data set [3] (pH 7.5) is 37.5; in data set [3] (pH 8) it was 83.8; in data set [4] (pH 4.5) it was 0.1; in data set [4] (pH 5), 0.2; in data set [4] (pH 5.5), 0.4; in data set [4] (pH 6), 1.2. The “Distribution coefficient (CAqueous phase/COrganic phase)” value is listed as 1.9 in data set [4] (pH 6.25); 3.5 in data set [4] (pH 6.5); 10.3 in data set [4] (pH 7); 27.4 in data set [4] (pH 7.5); 94.1 in data set [4] (pH 8).
